Three compounds from paper PMC6680845, “Screening and Evaluation of Xanthine Oxidase Inhibitors from Gnetum parvifolium in China” (Molecules, 2019) can be followed below.

pEC50: −log10 of the molar value.

Experiment [1] in a line: ABTS radical scavenging test. The following applies: 30 min in dark, 734 nm. The method, then: (§1) For ABTS test, ABTS solution (2 mL of ABTS stock solution (0.01 M) added to 58 mL phosphate buffers, pH 7.0) was incubated for 12 h and diluted with methanol for use. Then, 0.5 mL of samples with different concentrations were mixed thoroughly with 2 mL of ABTS solution. The mixture was kept in dark for 30 min, and the absorbance at 734 nm was measured by an UV-Vis Spectrophotometer. The same amount of water was used as control instead of sample. All experiments were performed in triplicate. The scavenging activity of DPPH and ABTS· radicals was calculated by the following formula: Radical scavenging rate% = 1 − As/A0 × 100 (2) where A0 was the absorbance of control and As was the absorbance of sample.

A short description of experiment [2]: DPPH free radical scavenging test. The conditions noted are these: DPPH 0.1 mM in methanol, 30 min in dark, 517 nm. The method, then:
The DPPH and ABTS· radical scavenging tests were measured according to the reported method with some modifications. For DPPH test, 0.5 mL of sample with different concentrations were mixed thoroughly with 2 mL of DPPH solution (0.1 mM in methanol). The mixture was then kept in dark for 30 min. Finally, the absorbance of solution was measured by an UV-Vis Spectrophotometer (UV2700, Shimadzu, Kyoto, Japan) at 517 nm.
as §1
(DPPH is a stable violet radical that fades when it is reduced.)

Experiment [3] concerns the target xanthine oxidase (XO) (Bos taurus, UniProt P80457). Put plainly: XO inhibition type and kinetics (Lineweaver-Burk and secondary plots). Format: biochemical. The following applies: for mode of XO inhibition: Lineweaver-Burk plots. The method, then: In order to further exploring the inhibitory activities of four inhibitors, the inhibition type and inhibition kinetics constants were assayed.
For inhibition test, 20 μL of XO solution (1 mg/mL in buffers) and 1 mL of sample with different concentrations were mixed in a quartz cuvette. Then, 1 mL of […] (1 mg/mL) was added to start reaction and the increase of absorbance at 295 nm in 100 s was recorded by an UV-Vis Spectrophotometer (UV2700, Shimadzu, Kyoto, Japan). […] All experiments were performed in triplicate. The inhibition of XO was calculated by the following formula. Inhibition% = (1 − ΔAs/ΔA0) × 100 (1) where ΔAs and ΔA0 are the changes of absorbance for sample and blank, respectively.

xanthine oxidase (XO), sequence (P80457 2-1332): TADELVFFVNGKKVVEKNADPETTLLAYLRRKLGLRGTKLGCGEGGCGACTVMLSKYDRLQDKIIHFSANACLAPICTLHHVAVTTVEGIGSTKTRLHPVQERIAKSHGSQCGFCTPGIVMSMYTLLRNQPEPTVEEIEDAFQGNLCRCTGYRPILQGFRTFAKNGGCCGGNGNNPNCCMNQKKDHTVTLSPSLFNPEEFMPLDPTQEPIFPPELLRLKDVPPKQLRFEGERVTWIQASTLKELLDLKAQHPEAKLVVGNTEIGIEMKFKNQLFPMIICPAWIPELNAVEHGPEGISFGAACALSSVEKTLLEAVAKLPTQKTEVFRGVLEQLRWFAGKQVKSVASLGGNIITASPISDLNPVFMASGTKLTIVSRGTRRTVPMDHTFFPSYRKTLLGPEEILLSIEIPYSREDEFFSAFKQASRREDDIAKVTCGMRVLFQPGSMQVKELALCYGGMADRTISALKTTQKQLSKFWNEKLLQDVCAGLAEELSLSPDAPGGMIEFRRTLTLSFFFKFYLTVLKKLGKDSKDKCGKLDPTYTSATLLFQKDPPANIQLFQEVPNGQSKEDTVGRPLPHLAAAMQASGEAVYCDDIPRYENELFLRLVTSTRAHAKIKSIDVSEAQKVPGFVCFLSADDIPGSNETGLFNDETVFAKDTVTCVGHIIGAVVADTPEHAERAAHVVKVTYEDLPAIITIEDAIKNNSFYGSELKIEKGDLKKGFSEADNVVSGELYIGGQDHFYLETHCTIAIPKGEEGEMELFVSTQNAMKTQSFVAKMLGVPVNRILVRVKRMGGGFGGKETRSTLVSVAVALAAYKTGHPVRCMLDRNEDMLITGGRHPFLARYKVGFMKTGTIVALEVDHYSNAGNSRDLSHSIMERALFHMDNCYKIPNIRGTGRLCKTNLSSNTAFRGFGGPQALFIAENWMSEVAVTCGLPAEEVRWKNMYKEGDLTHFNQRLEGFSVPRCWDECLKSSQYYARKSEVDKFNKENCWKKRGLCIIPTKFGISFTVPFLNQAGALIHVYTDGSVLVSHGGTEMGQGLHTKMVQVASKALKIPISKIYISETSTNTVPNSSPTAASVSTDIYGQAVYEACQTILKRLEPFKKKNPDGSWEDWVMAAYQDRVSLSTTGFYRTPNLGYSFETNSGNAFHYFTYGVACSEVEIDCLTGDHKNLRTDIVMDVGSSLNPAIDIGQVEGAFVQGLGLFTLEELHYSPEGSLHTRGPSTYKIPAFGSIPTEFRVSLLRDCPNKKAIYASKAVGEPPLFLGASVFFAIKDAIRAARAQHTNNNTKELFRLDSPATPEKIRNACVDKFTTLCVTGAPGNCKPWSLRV

As a reminder, the pEC50 is the negative decadic logarithm of the EC50, by convention in mol/L. Read a low pEC50 as a high EC50. As a reminder, the Vmax is the rate approached at saturating substrate. Consider `COc1cc(/C=C/c2cc(O)cc(O)c2)ccc1O` [Isorhapontigenin], for which the pEC50 in experiment [1] was 3.52; in experiment [2], 2.84. In experiment [3], the “mode of XO inhibition” value is reported as “uncompetitive type”. Also, the values for the maximal velocity (Vmax) in experiment [3] (inhibitor [C] 2.6 μM), in experiment [3] (inhibitor [C] 3.9 μM) and in experiment [3] (inhibitor [C] 5.3 μM) were 0.168 mmol/min, 0.134 mmol/min and 0.061 mmol/min, respectively.
The compound `Oc1cc(O)cc(/C=C/c2ccc(O)c(O)c2)c1` [Piceatannol] had a negative logarithm of the EC50 (pEC50) in experiment [2] of 4.40. Further, the “mode of XO inhibition” value in experiment [3] is “competitive type”. In addition, the maximum rate (Vmax) in experiment [3] (inhibitor [C] 3.3 μM) is on record as 0.160 mmol/min; in experiment [3] (inhibitor [C] 4.9 μM) it was 0.164 mmol/min; in experiment [3] (inhibitor [C] 6.6 μM), 0.157 mmol/min.
As for `Oc1ccc(/C=C/c2cc(O)cc(O)c2)cc1` [Resveratrol], in experiment [3], the “mode of XO inhibition” value is “uncompetitive type”. Also, the maximal velocity (Vmax) in experiment [3] (inhibitor [C] 3.3 μM) is recorded as 0.173 mmol/min; in experiment [3] (inhibitor [C] 4.9 μM), 0.106 mmol/min; in experiment [3] (inhibitor [C] 6.6 μM) it was 0.088 mmol/min.
